Our source for the GI50 and TGI values is PubChem BioAssay (NCI).

Several values for one entry are separate records, joined by “and”; a condition that tells them apart may be missing. Identical values can stand only once.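 Compound exposure: 48 hours, 5 concentrations, 96-well plates. GI50 marks 50% less growth. TGI: concentration producing complete growth inhibition.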

Common to all, as to assay: NCI anticancer screen, dose series, 48 h
Experiment [1] relates to 786-0 renal.
Experiment [2] deals with A498 renal.
Experiment [3] relates to M14 melanoma.
The subject of experiment [4] is MALME-3M melanoma.
Experiment [5] has as its system MCF7 breast.
The test system of experiment [6] is NCI-H460 lung.
The subject of experiment [7] is OVCAR-5 ovarian.
For experiment [8], the system named is SF-268 CNS.
The subject of experiment [9] is SK-MEL-5 melanoma.
Experiment [10] has as its system SNB-75 CNS.

Consider `CCOC(=O)Nc1cc2c(c(N)n1)N=C(c1ccccc1)CO2`, for which the GI50 was 1.21 µM in experiment [1]; 0.147 µM in experiment [2]; 166 nM in experiment [3]; 5.11 µM in experiment [4]; 100 nM in [5]; 65.9 nM in [6]. Besides, the GI50 was 1.15 µM in experiment [7], 0.325 µM in experiment [8] and 174 nM in [9]. For the same compound, the TGI in experiment [1] was determined as 20.9 µM; in experiment [2], 6.92 µM; in experiment [3], 93 µM; in experiment [4], 36.2 µM; in experiment [5] it was 21 µM; in experiment [6], 5.26 µM. For the same compound, the TGI in experiment [7] came out at 48.5 µM; in experiment [8], 15.8 µM; in [9], 5.9 µM.

`CN(C)C1CCN(C(=O)c2ccc(NC(=O)Nc3ccc(-c4nc(N5CCOCC5)c5cccn5n4)cc3)cc2)CC1`: the GI50 in experiment [1] was 0.31 µM; in [3], 281 nM; in [6], 58.7 nM; in [7] it was 0.0521 µM; in experiment [8] it was 0.0453 µM; in experiment [9], 153 nM. Further, in experiment [10], the GI50 was 0.0138 µM. Besides, the TGI is 6.36 µM in experiment [1]; 9.15 µM in experiment [3]; 1.51 µM in experiment [5]; 13.6 µM in experiment [6]; 16.1 µM in [7]; 13.9 µM in experiment [8]. For the same compound, the TGI was 0.662 µM in experiment [9] and 0.0711 µM in [10].

As to `O=C(NC[C@H](O)CN1CCc2ccccc2C1)c1cc(NC2COC2)ncn1`, the GI50 in experiment [1] was 12.6 µM; in experiment [3] it was 23000 nM; in experiment [4], 14.1 µM; in experiment [5], 3930 nM; in experiment [6], 3980 nM; in experiment [7] it was 36.8 µM. Moreover, the figures for the GI50 in [8], in [9] and in experiment [10] were 14.9 µM, 11400 nM and 12.5 µM, respectively. Further, the TGI was 41.9 µM in experiment [1]; greater than 100 µM in experiment [3]; 68.3 µM in experiment [4]; greater than 100 µM in experiment [5]; 21.1 µM in [6]; greater than 100 µM in experiment [7]. For the same compound, the TGI in [8] stood at 97.5 µM; in experiment [9], 24.5 µM; in experiment [10], 64.5 µM.

For the compound `COc1ccc(-c2nnc3n(C)c(=O)c4ccccc4n23)cc1N`, the GI50 in experiment [1] is 3.72 µM; in experiment [2] it was 2.84 µM; in [3] it was 47.5 nM; in experiment [5], 43 nM; in experiment [6], 50.8 nM; in experiment [7] it was 9.26 µM. Moreover, the GI50 in [8] was 7.17 µM; in experiment [9], 59.8 nM. Moreover, the TGI in experiment [1] was greater than 100 µM; in experiment [2] it was 54.5 µM; in experiment [3], greater than 100 µM; in [5] it was greater than 100 µM; in experiment [6], greater than 100 µM; in experiment [7], greater than 100 µM. Moreover, the TGI in experiment [8] and in experiment [9] was greater than 100 µM throughout.

In the case of `CC(=O)Nc1ccc(-c2csc(Nc3cccc(-c4csc(C)n4)c3)n2)cc1`, the GI50 in experiment [1] was 2.03 µM; in experiment [2] it was 6.92 µM; in experiment [3] it was 743 nM; in experiment [5], 680 nM; in experiment [6], 1000 nM; in [7], 10 µM. Also, the GI50 in experiment [8] was 4.38 µM; in experiment [9] it was 260 nM. Further, the TGI in [1] was 18.2 µM; in experiment [2], greater than 29.1 µM; in experiment [3] it was 8.81 µM; in experiment [5], greater than 50 µM; in experiment [6] it was greater than 50 µM; in experiment [7], greater than 36.8 µM. In addition, the TGI in [8] was greater than 27.1 µM; in [9], 8.62 µM.

For the compound `COc1cc(C(=O)N2CCN(C(=O)c3cc(OC)c(OC)c(OC)c3)C2=S)cc(OC)c1OC`, the GI50 in [1] is 11.4 µM; in [2], 17.7 µM; in experiment [3] it was 16800 nM; in [4] it was 13.4 µM; in experiment [5] it was 5230 nM; in experiment [6], 27200 nM. The values for the GI50 in experiment [7], in experiment [8] and in experiment [10] were 23.2 µM, 11.5 µM and 7.1 µM, respectively. Further, the TGI turned out to be 26.8 µM in experiment [1]; 33 µM in experiment [2]; 34 µM in experiment [3]; 27 µM in [4]; 27.6 µM in [5]; 73.6 µM in [6]. For the same compound, the TGI in [7] came to 57.7 µM; in experiment [8], 26.1 µM; in experiment [10], 21.6 µM.

On to `CCOC(=O)N[C@H]1CCc2cc(OC)c(OC)c(OC)c2-c2ccc(SC)c(=O)cc21`, for which the TGI is 45.7 µM and > 100 µM in experiment [1]; 21.7 µM and > 27.1 µM in experiment [3]; greater than 100 µM in experiment [4]; greater than 100 µM in [5]; greater than 100 µM in experiment [6]; greater than 100 µM in experiment [7]. Besides, in experiment [8], the TGI is 47.2 µM and > 100 µM. Further, the GI50 in experiment [4] is less than 0.0122 µM; in [7] it was less than 0.01 µM; in experiment [10] it was less than 0.01 µM.

For `COc1ccc(C(=O)Nc2ccc(O)c(=O)cc2)cc1`, the TGI is greater than 100 µM in experiment [1]; greater than 100 µM in [3]; greater than 100 µM in experiment [4]; 65 µM in experiment [5]; 28.7 µM in experiment [6]; greater than 100 µM in experiment [7]. For the same compound, the TGI was 63.4 µM in [8] and greater than 100 µM in experiment [9].

For the compound `O=C(Nc1cccc(C(F)(F)F)c1)c1ccc(NC2=C(Cl)C(=O)N(Cc3ccc(Cl)cc3Cl)C2=O)cc1`, the GI50 in experiment [1] is 3.96 µM; in [2], 6.51 µM; in experiment [3], 15300 nM; in [5], 2150 nM; in experiment [6], 8380 nM; in [8], 11 µM. Further, the GI50 is 1780 nM in [9] and 14.6 µM in experiment [10]. In addition, the TGI was found to be 14.3 µM in [1]; 25.9 µM in experiment [2]; 32.4 µM in [3]; 4.71 µM in experiment [5]; 31 µM in [6]; 35.5 µM in [8]. Also, the TGI in experiment [9] was 3.5 µM; in [10], 33.3 µM.

Consider `CC(C)C1=Cc2ccc3c(c2C(=O)C1=O)CCCC3(C)C`, for which the TGI is 10.5 µM in [1]; 34 µM in [2]; 16.2 µM in [3]; 10.5 µM in [4]; 37 µM in [6]; 33.8 µM in experiment [7]. Besides, the TGI in experiment [8] amounted to 20.2 µM; in [9] it was 24.9 µM; in [10] it was 29.3 µM.
